ChEMBL document CHEMBL1201862, “PubChem BioAssay data set” (2004)
Calls of active or inactive are those of the source.

How the values were obtained:
[1] = target: T1, Bcl-2-related protein A1 (Mus musculus, UniProt Q07440); assay type: functional;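 also: confirmatory dose–response counterscreen on Bfl-1, used to check hits from a UBC13 polyubiquitin inhibitor campaign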
T1 sequence (Q07440 whole entry): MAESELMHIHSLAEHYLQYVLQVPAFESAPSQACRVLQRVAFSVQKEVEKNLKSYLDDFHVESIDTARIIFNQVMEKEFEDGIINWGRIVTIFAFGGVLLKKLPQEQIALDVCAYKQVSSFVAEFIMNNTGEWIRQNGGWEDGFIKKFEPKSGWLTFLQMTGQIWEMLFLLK

[2] = system: INS1; experiment: INS-1E survival protection against cytokine death – cell-based, luminescence, retest, dose response (AID 449756); assay type: functional; settings: Rattus norvegicus;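 also: cell death triggered by IL-1 beta plus TNF-alpha plus IFN-gamma mixture; protective hits raise ATP signal compared with cytokine alone wells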
[3] = target: T2, Heat shock factor protein 1 (Mus musculus, UniProt P38532); experiment: decrease of HSF1-responsive luciferase luminescence – cell-based, NIH3T3, dose retest, confirmation (AID 2382); assay type: functional;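 also: NIH3T3 fibroblasts with HSF1-driven luciferase reporter stressed by proteasome inhibitor MG132; luminescence from HSF1-driven luciferase expression after 8 hours of MG132 stress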
T2 sequence (P38532 whole entry): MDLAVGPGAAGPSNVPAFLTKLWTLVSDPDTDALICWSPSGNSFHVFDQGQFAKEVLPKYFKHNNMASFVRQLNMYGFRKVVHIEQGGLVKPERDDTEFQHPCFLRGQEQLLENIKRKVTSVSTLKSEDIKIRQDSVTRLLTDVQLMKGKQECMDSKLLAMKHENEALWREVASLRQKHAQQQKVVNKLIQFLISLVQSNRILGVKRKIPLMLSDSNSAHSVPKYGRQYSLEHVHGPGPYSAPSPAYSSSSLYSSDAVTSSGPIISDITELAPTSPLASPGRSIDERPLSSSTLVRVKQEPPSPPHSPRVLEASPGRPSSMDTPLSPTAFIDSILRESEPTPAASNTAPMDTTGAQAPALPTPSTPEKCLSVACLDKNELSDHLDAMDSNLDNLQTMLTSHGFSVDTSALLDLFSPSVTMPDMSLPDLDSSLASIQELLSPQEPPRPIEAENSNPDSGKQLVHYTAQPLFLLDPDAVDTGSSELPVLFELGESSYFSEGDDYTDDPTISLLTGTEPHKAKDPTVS

[4] = target: T3, Ubiquitin-conjugating enzyme E2 N (Homo sapiens, UniProt P61088); assay type: functional
T3 sequence (P61088 whole entry): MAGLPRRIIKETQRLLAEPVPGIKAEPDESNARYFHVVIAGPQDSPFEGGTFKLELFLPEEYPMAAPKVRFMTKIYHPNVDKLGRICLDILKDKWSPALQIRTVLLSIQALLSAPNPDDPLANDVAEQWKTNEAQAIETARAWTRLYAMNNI

[5] = target: T3, Ubiquitin-conjugating enzyme E2 N; assay type: functional; remark: listed apart in the source
[6] = target: T4, Endoribonuclease toxin MazF (Escherichia coli K-12, UniProt P0AE70); experiment: activation of MazEF endoribonuclease cleavage – biochemical, fluorescence, single-stranded RNA substrate, uHTS hits, dose response (AID 588481); assay type: functional
T4 sequence (P0AE70 whole entry): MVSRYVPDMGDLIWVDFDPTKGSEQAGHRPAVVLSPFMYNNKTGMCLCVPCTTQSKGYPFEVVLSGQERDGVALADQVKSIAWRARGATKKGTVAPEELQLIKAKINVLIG

[7] = target: T4, Endoribonuclease toxin MazF; experiment: substrate-only fluorescence increase artefacts – biochemical, single-stranded RNase substrate, counter-screen for MazEF activator project, dose response (AID 588502); assay type: functional
[8] = target: T5, Short transient receptor potential channel 4 (Mus musculus, UniProt Q9QUQ5); experiment: calcium entry via TRPC4 opening agents – cell-based, HEK293 TRPC4/mu-opioid, Fluo-4 calcium, dose response (AID 434937); assay type: functional
T5 sequence (Q9QUQ5 whole entry): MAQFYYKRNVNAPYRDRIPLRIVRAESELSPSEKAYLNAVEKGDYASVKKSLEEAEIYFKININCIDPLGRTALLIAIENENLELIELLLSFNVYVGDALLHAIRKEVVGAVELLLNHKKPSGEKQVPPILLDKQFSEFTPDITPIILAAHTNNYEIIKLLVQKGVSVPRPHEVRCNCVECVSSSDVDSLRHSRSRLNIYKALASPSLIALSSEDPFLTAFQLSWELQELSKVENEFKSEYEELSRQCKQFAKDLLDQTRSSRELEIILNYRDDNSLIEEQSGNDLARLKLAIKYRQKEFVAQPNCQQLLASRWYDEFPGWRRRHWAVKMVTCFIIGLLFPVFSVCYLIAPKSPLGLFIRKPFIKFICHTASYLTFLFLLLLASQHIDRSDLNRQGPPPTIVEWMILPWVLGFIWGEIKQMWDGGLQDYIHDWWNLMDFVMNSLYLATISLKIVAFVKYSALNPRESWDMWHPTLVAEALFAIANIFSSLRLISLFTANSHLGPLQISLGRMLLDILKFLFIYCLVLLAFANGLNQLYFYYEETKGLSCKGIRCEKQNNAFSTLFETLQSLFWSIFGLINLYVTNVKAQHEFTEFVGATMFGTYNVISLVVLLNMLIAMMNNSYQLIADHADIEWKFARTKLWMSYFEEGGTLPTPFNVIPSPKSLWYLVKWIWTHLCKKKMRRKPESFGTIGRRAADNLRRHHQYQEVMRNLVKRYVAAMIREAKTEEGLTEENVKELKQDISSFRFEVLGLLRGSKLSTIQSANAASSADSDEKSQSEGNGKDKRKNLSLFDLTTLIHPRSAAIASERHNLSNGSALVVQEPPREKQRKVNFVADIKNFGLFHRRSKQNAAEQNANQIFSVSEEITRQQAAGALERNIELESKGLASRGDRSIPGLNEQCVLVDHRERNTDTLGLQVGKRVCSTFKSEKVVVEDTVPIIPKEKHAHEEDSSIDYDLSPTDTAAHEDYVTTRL

[9] = bead-based luminescence quenchers, dual-tagged ARNT – biochemical, AlphaScreen, cherry-pick, artefact control for ARNT-TACC3 interaction inhibitor project, dose response (AID 651705); assay type: functional;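 also: AlphaScreen bead proximity signal that flags compounds interfering with the detection technology; potency reflects signal decrease which marks the compound as an assay artifact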
[10] = target: T5, Short transient receptor potential channel 4; experiment: block of DAMGO-driven TRPC4 calcium entry – cell-based, HEK293 TRPC4/mu-opioid, Fluo-4 calcium, dose response (AID 434942); assay type: functional;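 also: potency of inhibitors blocking the TRPC4 calcium response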
[11] = cells; assay type: functional
[12] = Vero E6 cell cytotoxicity, dose response, cytotoxicity control for non-replicating M. tuberculosis project, secondary assay (AID 492998); assay type: functional, VeroE6; settings: Vero C1008
[13] = target: Intestinal-type alkaline phosphatase (Mus musculus, UniProt P24822); experiment: PubChem AID 488785; assay type: functional
Sequence of Intestinal-type alkaline phosphatase (Mus musculus, UniProt P24822) (P24822 whole entry): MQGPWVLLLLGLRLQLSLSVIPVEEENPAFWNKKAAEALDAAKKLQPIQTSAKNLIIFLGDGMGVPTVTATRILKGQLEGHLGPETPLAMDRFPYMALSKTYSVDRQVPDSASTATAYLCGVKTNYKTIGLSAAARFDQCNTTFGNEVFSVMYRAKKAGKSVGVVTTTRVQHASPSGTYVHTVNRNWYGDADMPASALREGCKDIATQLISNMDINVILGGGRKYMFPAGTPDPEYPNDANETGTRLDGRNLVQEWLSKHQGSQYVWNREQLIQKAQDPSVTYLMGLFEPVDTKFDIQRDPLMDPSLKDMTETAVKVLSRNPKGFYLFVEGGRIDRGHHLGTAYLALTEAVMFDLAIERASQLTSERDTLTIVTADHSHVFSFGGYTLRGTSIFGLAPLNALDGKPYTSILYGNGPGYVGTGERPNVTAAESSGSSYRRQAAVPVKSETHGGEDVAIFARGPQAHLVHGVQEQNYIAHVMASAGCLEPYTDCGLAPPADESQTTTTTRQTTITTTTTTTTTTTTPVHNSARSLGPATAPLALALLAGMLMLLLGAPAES

[14] = target: T6, Alkaline phosphatase, tissue-nonspecific isozyme (Homo sapiens, UniProt P05186); experiment: TNAP enzyme inhibition by screening hits, dose response, selectivity assay for mouse IAP inhibitor project, biochemical, human TNAP, uHTS hits (AID 488906); assay type: functional
T6 sequence (P05186 whole entry): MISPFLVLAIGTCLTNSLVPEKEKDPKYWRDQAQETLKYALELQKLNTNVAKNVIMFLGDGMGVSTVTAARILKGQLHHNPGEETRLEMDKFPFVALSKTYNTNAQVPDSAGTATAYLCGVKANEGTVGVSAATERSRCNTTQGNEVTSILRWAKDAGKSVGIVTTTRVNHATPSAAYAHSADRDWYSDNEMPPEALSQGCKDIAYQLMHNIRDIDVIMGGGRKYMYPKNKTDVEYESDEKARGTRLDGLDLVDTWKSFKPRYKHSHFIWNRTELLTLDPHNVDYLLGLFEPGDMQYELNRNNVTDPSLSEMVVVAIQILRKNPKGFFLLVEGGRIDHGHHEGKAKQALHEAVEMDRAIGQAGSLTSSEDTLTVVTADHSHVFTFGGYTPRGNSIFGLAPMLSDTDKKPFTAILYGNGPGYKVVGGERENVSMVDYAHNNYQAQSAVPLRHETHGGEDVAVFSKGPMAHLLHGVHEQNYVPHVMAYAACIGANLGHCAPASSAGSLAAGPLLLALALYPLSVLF

[15] = target: Intestinal-type alkaline phosphatase (Homo sapiens, UniProt P09923); experiment: inhibition of human intestinal alkaline phosphatase – biochemical, dose response (AID 488876); assay type: functional
Sequence of Intestinal-type alkaline phosphatase (Homo sapiens, UniProt P09923) (P09923 whole entry): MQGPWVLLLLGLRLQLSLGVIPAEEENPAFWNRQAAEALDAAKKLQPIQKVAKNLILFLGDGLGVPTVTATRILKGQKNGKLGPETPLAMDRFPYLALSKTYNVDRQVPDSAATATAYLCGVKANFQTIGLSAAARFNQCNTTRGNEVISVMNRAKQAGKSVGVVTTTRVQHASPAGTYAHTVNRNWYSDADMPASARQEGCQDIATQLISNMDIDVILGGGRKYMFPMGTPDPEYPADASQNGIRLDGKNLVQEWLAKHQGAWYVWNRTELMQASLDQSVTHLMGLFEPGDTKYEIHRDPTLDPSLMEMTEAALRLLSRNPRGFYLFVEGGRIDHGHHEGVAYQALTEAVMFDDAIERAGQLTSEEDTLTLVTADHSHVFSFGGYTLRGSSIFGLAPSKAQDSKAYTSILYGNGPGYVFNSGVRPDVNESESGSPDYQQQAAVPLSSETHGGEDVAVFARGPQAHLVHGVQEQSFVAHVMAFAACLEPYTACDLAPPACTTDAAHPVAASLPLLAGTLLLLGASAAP

[16] = viability of uninfected HEp-2 cells – cell-based, HTS, cytotoxicity control for RSV inhibitor project, dose response (AID 2410); assay type: functional; settings: human respiratory syncytial virus
[17] = cells
[18] = target: T7, Methionyl-tRNA synthetase, putative (Trypanosoma brucei brucei, UniProt Q38C91); assay type: functional, Trypanosoma brucei brucei strain 927/4 GUTat10.1;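 also: Read-out by fluorescence polarization, run as a confirmatory high-throughput counterscreen; potency of MetRS inhibitors measured by reduced AMP formation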
T7 sequence (Q38C91 whole entry): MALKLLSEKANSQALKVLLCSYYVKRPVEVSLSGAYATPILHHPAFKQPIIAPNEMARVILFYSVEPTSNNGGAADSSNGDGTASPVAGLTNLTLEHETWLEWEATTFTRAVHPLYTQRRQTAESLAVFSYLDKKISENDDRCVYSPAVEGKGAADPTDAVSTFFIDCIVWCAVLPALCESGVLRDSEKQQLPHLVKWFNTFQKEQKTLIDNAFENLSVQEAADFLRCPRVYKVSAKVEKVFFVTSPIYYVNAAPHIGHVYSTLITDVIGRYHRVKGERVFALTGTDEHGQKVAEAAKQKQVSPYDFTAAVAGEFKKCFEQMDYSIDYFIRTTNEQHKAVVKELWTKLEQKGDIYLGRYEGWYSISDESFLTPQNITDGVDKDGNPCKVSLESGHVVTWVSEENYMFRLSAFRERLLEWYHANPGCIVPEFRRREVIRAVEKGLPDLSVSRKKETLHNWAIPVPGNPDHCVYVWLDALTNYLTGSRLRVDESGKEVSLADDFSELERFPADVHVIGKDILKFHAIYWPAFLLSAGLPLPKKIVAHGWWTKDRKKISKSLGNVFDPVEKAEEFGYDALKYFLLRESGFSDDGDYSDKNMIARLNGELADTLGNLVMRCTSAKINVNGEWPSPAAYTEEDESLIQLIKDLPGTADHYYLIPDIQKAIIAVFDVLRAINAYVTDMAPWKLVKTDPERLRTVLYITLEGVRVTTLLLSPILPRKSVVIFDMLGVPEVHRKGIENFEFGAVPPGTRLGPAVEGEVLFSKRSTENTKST

[19] = Counterscreen for inhibitors of Trypanosoma brucei methionyl tRNA synthetase (MetRS): Luminescence-based cell-based high throughput dose response assay to identify compounds that are cytotoxic to Jurkat human T lymphocyte cells.; assay type: functional
[20] = target: T8, Small ubiquitin-related modifier 1 (Homo sapiens, UniProt P63165); experiment: SUMO1 protein-protein binding blockers, potency – biochemical, FRET, dose response (AID 624383); assay type: functional; settings: read-out: IC50_Mean
T8 sequence (P63165 whole entry): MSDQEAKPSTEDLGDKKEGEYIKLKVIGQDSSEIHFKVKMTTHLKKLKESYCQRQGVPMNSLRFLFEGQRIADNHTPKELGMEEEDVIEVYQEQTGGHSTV

[21] = target: T9, Probable nicotinate-nucleotide adenylyltransferase (Staphylococcus aureus (strain N315), UniProt P65502); assay type: functional, Staphylococcus aureus subsp. aureus N315;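 as to IC50 Mean: confirmatory dose-response retesting of NadD inhibitor hits first found in an ultra-high-throughput screen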
T9 sequence (P65502 whole entry): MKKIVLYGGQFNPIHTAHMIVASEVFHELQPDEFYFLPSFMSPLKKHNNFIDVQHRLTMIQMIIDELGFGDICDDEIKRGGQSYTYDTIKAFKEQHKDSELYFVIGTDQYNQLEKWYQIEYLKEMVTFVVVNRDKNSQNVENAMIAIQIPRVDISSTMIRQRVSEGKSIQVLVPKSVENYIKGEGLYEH

[22] = target: T9, Probable nicotinate-nucleotide adenylyltransferase; assay type: functional, Staphylococcus aureus subsp. aureus N315; settings: read-out: IC50_Mean
[23] = target: T8, Small ubiquitin-related modifier 1; experiment: SUMO1 protein interaction blockers, potency – biochemical, fluorescence polarization, uHTS hits, dose response (AID 624382); assay type: functional; settings: read-out: IC50_Mean

With `CCN1CCN(Cc2ccc(NC(=O)c3cc(NC(=O)c4cncc(-c5ccc(C#N)cc5)c4)cc(OC)c3)cc2C(F)(F)F)CC1` the IC50 [1] was 8.76 µM (active), the AC50 [2] was 8.2 µM (active) and the EC50 [3] was > 195 µM (not active). The IC50 [4] was 10.9 µM (active) and the IC50 [5] was 6.69 µM (active).

For `O=c1[nH]cnc2scc(-c3ccc(-c4ccccc4)cc3)c12`, the EC50 [6] was > 99 µM (inactive) and the EC50 [7] was > 99 µM (inactive).

In the case of `C#CCN1c2ccccc2Sc2cccnc21`, the EC50 [6] is reported as > 99 µM (inactive) and the EC50 [7] is reported as 85.6 µM (inactive).

For `COc1cc2c(cc1OC)C(C)N(C(=O)C(NC(=O)c1ccccc1)C(C)C)CC2` (centres undefined), the EC50 [8] was 5.96 µM (active).

With `NCCc1c[nH]cn1` [HISTAMINE] the AC50 [9] was 106 µM (active).

With `COc1ccc(/C=C/C(=O)Nc2ccccc2C(=O)NCC(c2ccc(OC)cc2)N(C)C)cc1` (centres undefined) the EC50 [3] was > 195 µM (not active), the EC50 [8] was 0.421 µM (active) and the EC50 [10] was 0.188 µM (active).

In the case of `O=C(Nc1nnc(-c2ccccc2Cl)o1)c1cccnc1`, the IC50 [11] is reported as 8.68 µM (active), the AC50 [9] is reported as 91.9 µM (active) and the CC50 [12] is reported as > 20 µM (active).

In the case of `CCOc1ccccc1CNC(=O)CCNS(=O)(=O)c1ccc2nc(O)oc2c1`, the IC50 [13] is reported as 2.65 µM (active), the IC50 [14] is reported as 22.7 µM (active) and the IC50 [15] is reported as > 100 µM (inactive).

With `Cc1ccc(S(=O)(=O)N2CCC(C(=O)Nc3ccc(C(C)C)cc3)CC2)cc1` the CC50 [16] was 13 µM (active), the IC50 [13] was 7.81 µM (active) and the IC50 [14] was > 100 µM (inactive). The IC50 [17] was 40.7 µM (active) and the IC50 [15] was > 100 µM (inactive).

In the case of `COc1ccccc1NS(=O)(=O)c1cc(NC(=O)Nc2ccccc2)ccc1N1CCCCC1`, the IC50 [18] is reported as 19.7 µM (inactive) and the IC50 [19] is reported as 83.3 µM (inactive).

For `CC(C)C[C@@H](CNCC(=O)[C@H](CC(=O)O)NC(=O)c1nc[nH]c1C(=O)N[C@H](CN)CC(C)C)NC(=O)c1[nH]cnc1C(=O)N[C@@H](Cc1ccccc1)C(=O)O`, the IC50 [20] was 5.92 µM (active), the IC50 [21] was 12.4 µM (active) and the IC50 [22] was 44 µM (active). The IC50 [23] was 50.1 µM (inactive).

With `Nc1nccnc1C(=O)OCC(=O)Nc1ccc2[nH]c(O)nc2c1` the IC50 [20] was 11.9 µM (active) and the IC50 [23] was > 66.6 µM (inactive).

For `Cc1c(CN2CCC(n3nccc3NC(=O)C3CC3)CC2)[nH]c2ccccc12`, the EC50 [8] was 0.596 µM (active).
